These results are taken from patent US20070010537A1, “Fused pyramidine derivative and use thereof” (priority 2004, published 2007).

Where a name gives a salt, the structure may show the parent alone.

This assay deals with T1, human GnRH receptor (Homo sapiens, UniProt P30968).
T1 construct: expressed in transfected cells; host or cells: CHO (Chinese Hamster Ovary) cells
T1 sequence (P30968 1-328): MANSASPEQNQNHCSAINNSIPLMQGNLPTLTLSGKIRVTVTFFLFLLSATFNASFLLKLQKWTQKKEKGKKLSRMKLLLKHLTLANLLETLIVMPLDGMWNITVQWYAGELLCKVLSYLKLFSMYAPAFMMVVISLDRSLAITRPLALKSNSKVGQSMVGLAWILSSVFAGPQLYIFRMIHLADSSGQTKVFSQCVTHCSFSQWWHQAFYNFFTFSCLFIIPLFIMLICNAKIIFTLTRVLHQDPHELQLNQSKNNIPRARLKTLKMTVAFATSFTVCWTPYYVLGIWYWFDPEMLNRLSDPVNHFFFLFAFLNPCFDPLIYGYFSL
Kind of assay: 125I-leuprorelin binding assay, human GnRH receptor CHO cell membrane fraction. The note with it: 10 nM of the testing compound, room temperature for 1 hour, read-out: Binding inhibitory ratio (%). As for the experimental part:
(1) Production of ^125I-Leuprorelin
10 μL of a 3×10^−4 M aqueous solution of leuprorelin and 10 μL of 0.01 mg/mL lactoperoxidase were placed in a tube, and 10 μL (37 MBq) of a Na^125I solution was added thereto. After stirring, 10 μL of 0.001% H2O2 was added to allow the mixture to undergo a reaction at room temperature for 20 minutes. 700 μL of a 0.05% TFA solution was added to stop the reaction, and purification by reversed phase HPLC was carried out. The conditions for HPLC are described below. ^125I-leuprorelin was eluted at a retention time of 26 to 27 minutes.
(2) Production of CHO (Chinese Hamster Ovary) Cell Membrane Fraction Containing Human GnRH Receptor
Human GnRH receptor-expressing CHO cells were cultured until the cells were reached a 90% confluent state in a T-150 flask. The cells were separated using 0.02% EDTA-PBS and were centrifuged at 500×g for 5 minutes. A homogenate buffer for cells (10 mM NaHCO3, 1 mM EDTA, 1 mM PMSF, 0.5 μg/mL Pepstatin, 2 μg/mL Leupeptin, pH 7.4) was added to the cell pellet, and the mixture was homogenized with a Polytron homogenizer. After centrifugation of the homogenate at 4° C. and at 1000×g for 10 minutes, the supernatant was placed in an ultracentrifuge tube and was centrifuged at 4° C. and at 49,300×g for 1 hour to obtain a precipitate of a membrane fraction. This precipitate was suspended in an assay buffer (50 mM Tris-HCl, 150 mM NaCl, 5 mM EDTA, pH 7.4) and then dispensed and stored at −80° C., so that the suspension can be thawed every time it is taken for use.
(3) Measurement of the Binding Inhibitory Rate of 125I-Leuprorelin
A ^125I-leuprorelin binding assay was carried out using 200 μL of an assay buffer containing 10 μg of human GnRH receptor membrane fraction, […] of ^125I-leuprorelin and 10 nM of the testing compound.
The non-specific binding radioactivity was measured in the presence of 1 μM of non-labeled leuprorelin. After leaving the mixture to stand at room temperature for 1 hour, 125I-leuprorelin was captured on a GF/C filter (PerkinElmer, Inc.), and the filter was washed with ice-cold 50 mM Tris-HCl (pH 7.4) using a cell harvester. After drying the filter, a liquid scintillation cocktail for microplate was added, and the membrane-bound radioactivity was measured using a TopCount.
The value of (TB-SB)/(TB-NSB)×100 (SB: radioactivity upon addition of the compound, TB: maximum binding radioactivity, NSB: non-specific binding radioactivity) was calculated to determine the binding inhibitory rate in the presence of 10 nM of each testing material.
On to `O=c1[nH]c2ccccc2c(=O)n1-c1cc(S(=O)(=O)N2CCCc3ccccc32)ccc1Cl` [Example 6(4), 3-(2-Chloro-5-(3,4-dihydroquinolin-1(2H)-ylsulfonyl)phenyl)quinazoline-2,4(1H,3H)-dione], for which the inhibition at 0.01 µM stood at 88.5%.
In the case of `O=c1[nH]c2ccccc2c(=O)n1-c1cc(S(=O)(=O)N2CCCCc3ccccc32)ccc1Cl` [Example 7(5), 3-(2-Chloro-5-(2,3,4,5-tetrahydro-1H-1-benzazepin-1-ylsulfonyl)phenyl)-2,4(1H,3H)-quinazolinedione], the inhibition at 0.01 µM was 95.6%.
The same measure for `O=c1[nH]c2ccccc2c(=O)n1-c1cc(S(=O)(=O)N2CCCOc3ccccc32)ccc1Cl` [Example 7(8), 3-(2-Chloro-5-(3,4-dihydro-1,5-benzoxazepin-5(2H)-ylsulfonyl)phenyl)-2,4(1H,3H)-quinazolinedione]: 87.6%; for `O=c1[nH]c2ccccc2c(=O)n1-c1cc(S(=O)(=O)N2CCCc3ccccc32)ccc1F` [Example 7(22), 3-[5-(3,4-Dihydroquinolin-1(2H)-ylsulfonyl)-2-fluorophenyl]quinazoline-2,4(1H,3H)-dione]: 75.5%; for `O=c1[nH]c2ccccc2c(=O)n1-c1cc(S(=O)(=O)N2CCCCc3sccc32)ccc1Cl` [Example 7(70), 3-[2-Chloro-5-(5,6,7,8-tetrahydro-4H-thieno[3,2-b]azepin-4-ylsulfonyl)phenyl]quinazoline-2,4(1H,3H)-dione]: 94.5%.
The same measure for `N=c1c2ccccc2[nH]c(=O)n1-c1cc(S(=O)(=O)N2CCCc3ccccc32)ccc1Cl` [Example 8(1), 3-(2-Chloro-5-(3,4-dihydro-1(2H)-quinolinylsulfonyl)phenyl)-4-imino-3,4-dihydro-2(1H)-quinazoline trifluoroacetate]: 91.7%.
On to `CN(c1ccccc1)S(=O)(=O)c1ccc(Cl)c(-n2c(=O)[nH]c3ccccc3c2=N)c1` [Example 8, 4-Chloro-3-(4-imino-2-oxo-1,4-dihydro-3(2H)-quinazolinyl)-N-methyl-N-phenylbenzenesulfonamide trifluoroacetate], for which the inhibition at 0.01 µM is 84.7%.
Take `CN(C(=O)c1ccc(Cl)c(-n2c(=O)[nH]c3ccccc3c2=O)c1)c1ccccc1` [Example 14, 4-Chloro-3-(2,4-dioxo-1,4-dihydroquinazolin-3(2H)-yl)-N-methyl-N-phenylbenzamide]: the inhibition at 0.01 µM stood at 88.9%.
In the case of `CN(C(=O)c1cc(-n2c(=O)[nH]c3cccc(CO)c3c2=O)c(Cl)s1)c1ccccc1` [Example 21(12), 5-Chloro-4-[5-(hydroxymethyl)-2,4-dioxo-1,4-dihydroquinazolin-3(2H)-yl]-N-methyl-N-phenylthiophene-2-carboxamide], the inhibition at 0.01 µM came out at 84.2%.
Take `COC(=O)c1cccc2[nH]c(=O)n(-c3cc(S(=O)(=O)N4CCCc5ccccc54)ccc3Cl)c(=O)c12` [Example 30, Methyl 3-[2-chloro-5-(3,4-dihydroquinolin-1(2H)-ylsulfonyl)phenyl]-2,4-dioxo-1,2,3,4-tetrahydroquinazoline-5-carboxylate]: the inhibition at 0.01 µM is 98%.
`O=C(O)c1cccc2[nH]c(=O)n(-c3cc(S(=O)(=O)N4CCCc5ccccc54)ccc3Cl)c(=O)c12` [Example 31, 3-[2-Chloro-5-(3,4-dihydroquinolin-1(2H)-ylsulfonyl)phenyl]-2,4-dioxo-1,2,3,4-tetrahydroquinazoline-5-carboxylic acid]: the inhibition at 0.01 µM amounted to 98.2%.
For `O=c1[nH]c2cccc(CO)c2c(=O)n1-c1cc(S(=O)(=O)N2CCCc3ccccc32)ccc1Cl` [Example 36, 3-[2-Chloro-5-(3,4-dihydroquinolin-1(2H)-ylsulfonyl)phenyl]-5-(hydroxymethyl)quinazoline-2,4(1H,3H)-dione], the inhibition at 0.01 µM turned out to be 96.7%.
For the compound `N#Cc1sc(S(=O)(=O)N2CCCCc3ccccc32)cc1-n1c(=O)[nH]c2ccccc2c1=O` [Example 42, 3-(2,4-Dioxo-1,4-dihydroquinazolin-3(2H)-yl)-5-(2,3,4,5-tetrahydro-1H-1-benzazepin-1-ylsulfonyl)thiophene-2-carbonitrile], the inhibition at 0.01 µM worked out at 77.4%.
With `CN(C(=O)c1ccc(Cl)c(-n2c(=O)[nH]c3cccc(CO)c3c2=O)c1)c1ccccn1` [Example 46(1), 4-Chloro-3-[5-(hydroxymethyl)-2,4-dioxo-1,4-dihydroquinazolin-3(2H)-yl]-N-methyl-N-pyridin-2-ylbenzamide], the inhibition at 0.01 µM worked out at 98.2%.
Next, `O=c1[nH]c2cccc(CO)c2c(=O)n1-c1cc(S(=O)(=O)N2CCCCc3ccccc32)sc1Cl` [Example 47, 3-[2-Chloro-5-(2,3,4,5-tetrahydro-1H-1-benzazepin-1-ylsulfonyl)-3-thienyl]-5-(hydroxymethyl)quinazoline-2,4(1H,3H)-dione]: 94.8%; `CN(C(=O)c1cc(-n2c(=O)[nH]c3cccc(CO)c3c2=O)c(Cl)s1)c1ccccc1Cl` [Example 73(1), 5-Chloro-N-(2-chlorophenyl)-4-[5-(hydroxymethyl)-2,4-dioxo-1,4-dihydroquinazolin-3(2H)-yl]-N-methylthiophene-2-carboxamide]: 91.5%.
With `CN(C(=O)c1cc(-n2c(=O)[nH]c3cccc(CO)c3c2=O)c(Cl)s1)c1cccc(Cl)c1` [Example 73(2), 5-Chloro-N-(3-chlorophenyl)-4-[5-(hydroxymethyl)-2,4-dioxo-1,4-dihydroquinazolin-3(2H)-yl]-N-methylthiophene-2-carboxamide], the inhibition at 0.01 µM was found to be 93.8%.
The same measure for `Cc1ccccc1N(C)C(=O)c1cc(-n2c(=O)[nH]c3cccc(CO)c3c2=O)c(Cl)s1` [Example 73(4), 5-Chloro-4-[5-(hydroxymethyl)-2,4-dioxo-1,4-dihydroquinazolin-3(2H)-yl]-N-methyl-N-(2-methylphenyl)thiophene-2-carboxamide]: 82.2%; for `Cc1cccc(N(C)C(=O)c2cc(-n3c(=O)[nH]c4cccc(CO)c4c3=O)c(Cl)s2)c1` [Example 73(5), 5-Chloro-4-[5-(hydroxymethyl)-2,4-dioxo-1,4-dihydroquinazolin-3(2H)-yl]-N-methyl-N-(3-methylphenyl)thiophene-2-carboxamide]: 95.6%.
Regarding `CN(C(=O)c1cc(-n2c(=O)[nH]c3cccc(CO)c3c2=O)c(Cl)s1)C1CCCCC1` [Example 73, 5-Chloro-N-cyclohexyl-4-[5-(hydroxymethyl)-2,4-dioxo-1,4-dihydroquinazolin-3(2H)-yl]-N-methylthiophene-2-carboxamide], the inhibition at 0.01 µM is 79%.
The same measure for `NC(=O)c1cccc2[nH]c(=O)n(-c3cc(S(=O)(=O)N4CCCc5ccccc54)ccc3Cl)c(=O)c12` [Example 85, 3-[2-Chloro-5-(3,4-dihydroquinolin-1(2H)-ylsulfonyl)phenyl]-2,4-dioxo-1,2,3,4-tetrahydroquinazoline-5-carboxamide]: 94%; for `CC(C)CN(C)C(=O)c1cc(-n2c(=O)[nH]c3cccc(CO)c3c2=O)c(Cl)s1` [Example 89, 5-Chloro-4-[5-(hydroxymethyl)-2,4-dioxo-1,4-dihydroquinazolin-3(2H)-yl]-N-isobutyl-N-methylthiophene-2-carboxamide]: 76.2%.
In the case of `CC(C)(O)c1cccc2[nH]c(=O)n(-c3cc(S(=O)(=O)N4CCCc5ccccc54)ccc3Cl)c(=O)c12` [Example 100(1), 3-[2-Chloro-5-(3,4-dihydroquinolin-1(2H)-ylsulfonyl)phenyl]-5-(1-hydroxy-1-methylethyl)quinazoline-2,4(1H,3H)-dione], the inhibition at 0.01 µM was found to be 99.9%.
